# Measurements from PubChem BioAssay AID1963826 (Molecular Pharmacology Branch, DTP, NCI, 2024).
# System: 926638-142-R-J1-PDC complex spheroid viability
# Experiment: Anticancer human tumor 926638-142-R-J1-PDC patient-derived endometrial carcinoma cell line growth inhibition [POLQ]
# Details: for IC50: curve of first compound; for viability, T/C: stronger effect = lower value
# Method: Multicellular complex tumor spheroid response to Polymerase (POL) inhibitors (novobiocin, ART-558, RP6685) in combination with a variety of drugs and investigational agents in selected tumor cell lines
# The POL inhibitors (novobiocin, ART-558, and RP6685) were evaluated both individually and in combination with standard of care and investigational anticancer small molecules within a complex spheroid model of solid tumors. . Complex spheroids include a stromal component modeled by human endothelial cells (HUVEC) and fibroblasts modeled by human mesenchymal stem cells (MSCs). The concentration ranges selected for each drug and investigational agent were based upon clinically achievable concentrations if the clinical Cmax of the agent was known.
# Compounds. The drugs and investigational agents: novobiocin (NSC847541), ART-558 (NSC835418), RP-6685 (NSC848927), peposertib (NSC802822), ceralasertib (NSC780249), elimusertib (NSC800525), camonsertib (NSC841442), AZD-1390 (NSC803789), olaparib (NSC753686), talazoparib (NSC767125), rucaparib (NSC756644), sotorasib (NSC818433), MRTX-1133 (NSC836407), SN-38 (NSC673596), topotecan (NSC609699), epotoside (NSC141540), doxorubicin (NSC123127), gemcitabine (NSC613327), 5-fluorouracil (NSC19893), paclitaxel (NSC125973), vemurafenib (NSC761431), MSA-2 (NSC828583), SN-011 (NSC837082), adavosertib (NSC754352), prexasertib (NSC758257), carboplatin (NSC241240) and oxaliplatin (NSC266046), were obtained from the National Cancer Institute (NCI) Developmental Therapeutics Program Chemical Repository (21). The FDA-approved anticancer drug set is available from the Developmental Therapeutics Program at https://dtp.cancer.gov/organization/dscb/obtaining/. […] The stock solutions were prepared in dimethyl sulfoxide (DMSO, Sigma-Aldrich, St. Louis, MO, cat. D2650), except for the platinum compounds which were prepared in saline (Quality Biological, Gaithersburg, MD, cat. 114-055-101), at 800-fold the tested concentration and stored at -70 degrees C prior to their use. All drugs and investigational agents were tested over a range starting from a high concentration at or near the clinical Cmax and decreasing in half-log increments. If the clinical Cmax for an agent had not been determined, the highest concentration tested was 10 microM, except for SN-38, which was tested at a high concentration of 1 microM.
# Cell Culture. All cells were maintained in an incubator at 37 degrees C and 5% CO2 with 95% humidity. The PDC lines were cultured according to standard operating procedures established by the NCI PDMR (https://pdmr.cancer.gov). Table 3 of the manuscript, lists the cell lines along with the number of the three cell types plated to form the mct-spheroids and media for tumor cell growth. After thawing, all PDC lines, except 997537-175-T-J1-PDC and 415267-285-R-J2-PDC, were cultured in Matrigel-coated flasks prepared with a working solution of 1X Ham's F-12 nutrient mix, without supplementation (Thermo Fisher Scientific, cat. 11765054), 100 U/mL penicillin-streptomycin (Thermo Fisher Scientific, cat. 15140122), and 2.5% Matrigel (Corning Inc., Corning, NY, cat. 354248) for the first three passages. The two PDC lines 997537-175-T-J1-PDC and 415267-285-R-J2-PDC were cultured on uncoated flasks. The 857933-349-R-J2-PDC line was cultured in 6C/Colon 1B media containing advanced DMEM/F-12 (Thermo Fisher Scientific, cat. 12634028), 10 mM HEPES (Thermo Fisher Scientific, cat. 15630080), 1X GlutaMAX supplement (Thermo Fisher Scientific, cat. 35050061), 0.1 mg/mL primocin (InvivoGen, San Diego, CA, cat. ant-pm-2), 10% defined fetal bovine serum, heat inactivated (HyClone Laboratories Inc., Logan, UT, cat. SH30070.03HI), 50% L-WRN conditioned media (ATCC, cat. CRL-3276), 1.25 mM N-Acetyl-L-cysteine (Sigma-Aldrich, cat. A9165), 10 mM nicotinamide (Sigma-Aldrich, cat. N0636), 1X B-27 supplement (Thermo Fisher Scientific, cat. 17504044), 1X N-2 supplement (Thermo Fisher Scientific, cat. […]
# 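Also: spheroids exposed to drugs for one week before readout.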
# 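For viability, T/C in this document: percent viability relative to DMSO vehicle control wells set as 100%.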
smiles,measurement,setting,value
CC(=O)O[C@H]1C(=O)[C@@]2(C)[C@H]([C@H](OC(=O)c3ccccc3)[C@]3(O)C[C@H](OC(=O)[C@H](O)[C@@H](NC(=O)c4ccccc4)c4ccccc4)C(C)=C1C3(C)C)[C@]1(OC(C)=O)CO[C@@H]1C[C@@H]2O + COC1C(OC(N)=O)C(O)C(Oc2ccc3c(O)c(NC(=O)c4ccc(O)c(CC=C(C)C)c4)c(=O)oc3c2C)OC1(C)C,IC50,second compound 0.0316 µM,> 3000 nM
same,IC50,second compound 0.1 µM,> 3000 nM
same,IC50,second compound 0.316 µM,> 3000 nM
same,IC50,second compound 1 µM,> 3000 nM
same,IC50,second compound 3.16 µM,> 3000 nM
same,IC50,second compound 10 µM,> 3000 nM
same,"viability, T/C","second compound 0.0316 µM, first compound 0.00949 µM",94.1%
same,"viability, T/C","second compound 0.0316 µM, first compound 0.03 µM",76.3%
same,"viability, T/C","second compound 0.0316 µM, first compound 0.0949 µM",65.2%
same,"viability, T/C","second compound 0.0316 µM, first compound 0.3 µM",58%
same,"viability, T/C","second compound 0.0316 µM, first compound 0.949 µM",62.3%
same,"viability, T/C","second compound 0.0316 µM, first compound 3 µM",51.4%
same,"viability, T/C","second compound 0.1 µM, first compound 0.00949 µM",89.5%
same,"viability, T/C","second compound 0.1 µM, first compound 0.03 µM",80.9%
same,"viability, T/C","second compound 0.1 µM, first compound 0.0949 µM",62.8%
same,"viability, T/C","second compound 0.1 µM, first compound 0.3 µM",49.9%
same,"viability, T/C","second compound 0.1 µM, first compound 0.949 µM",60.1%
same,"viability, T/C","second compound 0.1 µM, first compound 3 µM",59%
same,"viability, T/C","second compound 0.316 µM, first compound 0.00949 µM",75.5%
same,"viability, T/C","second compound 0.316 µM, first compound 0.03 µM",74.7%
same,"viability, T/C","second compound 0.316 µM, first compound 0.0949 µM",63.6%
same,"viability, T/C","second compound 0.316 µM, first compound 0.3 µM",58.2%
same,"viability, T/C","second compound 0.316 µM, first compound 0.949 µM",48.4%
same,"viability, T/C","second compound 0.316 µM, first compound 3 µM",63.4%
same,"viability, T/C","second compound 1 µM, first compound 0.00949 µM",81.4%
same,"viability, T/C","second compound 1 µM, first compound 0.03 µM",70%
same,"viability, T/C","second compound 1 µM, first compound 0.0949 µM",55.9%
same,"viability, T/C","second compound 1 µM, first compound 0.3 µM",53.1%
same,"viability, T/C","second compound 1 µM, first compound 0.949 µM",62%
same,"viability, T/C","second compound 1 µM, first compound 3 µM",51.8%
same,"viability, T/C","second compound 3.16 µM, first compound 0.00949 µM",86.5%
same,"viability, T/C","second compound 3.16 µM, first compound 0.03 µM",72.2%
same,"viability, T/C","second compound 3.16 µM, first compound 0.0949 µM",67%
same,"viability, T/C","second compound 3.16 µM, first compound 0.3 µM",57.6%
same,"viability, T/C","second compound 3.16 µM, first compound 0.949 µM",67%
same,"viability, T/C","second compound 3.16 µM, first compound 3 µM",54.7%
same,"viability, T/C","second compound 10 µM, first compound 0.00949 µM",94.6%
same,"viability, T/C","second compound 10 µM, first compound 0.03 µM",73.4%
same,"viability, T/C","second compound 10 µM, first compound 0.0949 µM",64.9%
same,"viability, T/C","second compound 10 µM, first compound 0.3 µM",52.1%
same,"viability, T/C","second compound 10 µM, first compound 0.949 µM",51.8%
same,"viability, T/C","second compound 10 µM, first compound 3 µM",60.4%
COc1cccc2c1C(=O)c1c(O)c3c(c(O)c1C2=O)CC(O)(C(=O)CO)CC3OC1CC(N)C(O)C(C)O1 (centres undefined) + COC1C(OC(N)=O)C(O)C(Oc2ccc3c(O)c(NC(=O)c4ccc(O)c(CC=C(C)C)c4)c(=O)oc3c2C)OC1(C)C,IC50,second compound 0.0316 µM,94.1 nM
same,IC50,second compound 0.1 µM,167 nM
same,IC50,second compound 0.316 µM,129 nM
same,IC50,second compound 1 µM,128 nM
same,IC50,second compound 3.16 µM,133 nM
same,IC50,second compound 10 µM,154 nM
same,"viability, T/C","second compound 0.0316 µM, first compound 0.0316 µM",73.2%
same,"viability, T/C","second compound 0.0316 µM, first compound 0.1 µM",48.3%
same,"viability, T/C","second compound 0.0316 µM, first compound 0.316 µM",17.7%
same,"viability, T/C","second compound 0.0316 µM, first compound 1 µM",1.39%
same,"viability, T/C","second compound 0.0316 µM, first compound 3.16 µM",0.18%
same,"viability, T/C","second compound 0.0316 µM, first compound 10 µM",0.28%
same,"viability, T/C","second compound 0.1 µM, first compound 0.0316 µM",81%
same,"viability, T/C","second compound 0.1 µM, first compound 0.1 µM",74.1%
same,"viability, T/C","second compound 0.1 µM, first compound 0.316 µM",19.9%
same,"viability, T/C","second compound 0.1 µM, first compound 1 µM",3.56%
same,"viability, T/C","second compound 0.1 µM, first compound 3.16 µM",0.18%
same,"viability, T/C","second compound 0.1 µM, first compound 10 µM",0.25%
same,"viability, T/C","second compound 0.316 µM, first compound 0.0316 µM",81.6%
same,"viability, T/C","second compound 0.316 µM, first compound 0.1 µM",59.9%
same,"viability, T/C","second compound 0.316 µM, first compound 0.316 µM",15.9%
same,"viability, T/C","second compound 0.316 µM, first compound 1 µM",1.61%
same,"viability, T/C","second compound 0.316 µM, first compound 3.16 µM",0.22%
same,"viability, T/C","second compound 0.316 µM, first compound 10 µM",0.17%
same,"viability, T/C","second compound 1 µM, first compound 0.0316 µM",72.9%
same,"viability, T/C","second compound 1 µM, first compound 0.1 µM",59.8%
same,"viability, T/C","second compound 1 µM, first compound 0.316 µM",14%
same,"viability, T/C","second compound 1 µM, first compound 1 µM",2.68%
same,"viability, T/C","second compound 1 µM, first compound 3.16 µM",0.17%
same,"viability, T/C","second compound 1 µM, first compound 10 µM",0.21%
same,"viability, T/C","second compound 3.16 µM, first compound 0.0316 µM",74.3%
same,"viability, T/C","second compound 3.16 µM, first compound 0.1 µM",61.1%
same,"viability, T/C","second compound 3.16 µM, first compound 0.316 µM",16.2%
same,"viability, T/C","second compound 3.16 µM, first compound 1 µM",3.97%
same,"viability, T/C","second compound 3.16 µM, first compound 3.16 µM",0.21%
same,"viability, T/C","second compound 3.16 µM, first compound 10 µM",0.21%
same,"viability, T/C","second compound 10 µM, first compound 0.0316 µM",90.7%
same,"viability, T/C","second compound 10 µM, first compound 0.1 µM",69%
same,"viability, T/C","second compound 10 µM, first compound 0.316 µM",18%
same,"viability, T/C","second compound 10 µM, first compound 1 µM",2.23%
same,"viability, T/C","second compound 10 µM, first compound 3.16 µM",0.25%
same,"viability, T/C","second compound 10 µM, first compound 10 µM",0.26%
